In patent US7683079B2, “4-aminopiperidine derivatives” (Hoffmann-La Roche Inc., priority 2004, dated 2010) one finds IC50 data, which are given here for three compounds.

This test deals with T1, human DPP-IV (Homo sapiens, UniProt P27487).
T1 construct: made in house; host or cells: Pichia pastoris
As to the kind of experiment: DPP-IV activity assay (fluorometric/colorimetric), IC50 determination. Type of test: biochemical. Conditions: natural human DPP-IV from human plasma pool or recombinant human DPP-IV; 37° C., pH 7.8; substrate 50 μM (fluorogenic) or 200 μM (colorimetric). On the procedure:
Activity of DPP-IV inhibitors are tested with natural human DPP-IV derived from a human plasma pool or with recombinant human DPP-IV. […] In the calorimetric DPP-IV assay 5 to 10 μl human plasma and in the fluorometric assay 1.0 μl of human plasma in a total assay volume of 100 μl is used as an enzyme source. […] Human DPP-IV is expressed and purified from the culture medium using conventional column chromatography including size exclusion and anion and cation chromatography.
A 20 mM stock solution in 10% DMF/H2O is stored at −20° C. until use.
A 10 mM stock solution in 10% MeOH/H2O is stored at −20° C. until use.
Fluorescence is detected in a Perkin Elmer Luminescence Spectrometer LS 50B at an excitation wavelength of 400 nm and an emission wavelength of 505 nm continuously every 15 seconds for 10 to 30 minutes. Initial rate constants are calculated by best fit linear regression.
Initial rate constants are calculated by best fit linear regression.
DPP-IV activity assays are performed in 96 well plates at 37° C. in a total assay volume of 100 μl. The assay buffer consists of 50 mM Tris/HCl pH 7.8 containing 0.1 mg/ml BSA and 100 mM NaCl. […] Enzyme reactions are started with substrate application followed by immediate mixing.

T1 sequence (P27487 31-766): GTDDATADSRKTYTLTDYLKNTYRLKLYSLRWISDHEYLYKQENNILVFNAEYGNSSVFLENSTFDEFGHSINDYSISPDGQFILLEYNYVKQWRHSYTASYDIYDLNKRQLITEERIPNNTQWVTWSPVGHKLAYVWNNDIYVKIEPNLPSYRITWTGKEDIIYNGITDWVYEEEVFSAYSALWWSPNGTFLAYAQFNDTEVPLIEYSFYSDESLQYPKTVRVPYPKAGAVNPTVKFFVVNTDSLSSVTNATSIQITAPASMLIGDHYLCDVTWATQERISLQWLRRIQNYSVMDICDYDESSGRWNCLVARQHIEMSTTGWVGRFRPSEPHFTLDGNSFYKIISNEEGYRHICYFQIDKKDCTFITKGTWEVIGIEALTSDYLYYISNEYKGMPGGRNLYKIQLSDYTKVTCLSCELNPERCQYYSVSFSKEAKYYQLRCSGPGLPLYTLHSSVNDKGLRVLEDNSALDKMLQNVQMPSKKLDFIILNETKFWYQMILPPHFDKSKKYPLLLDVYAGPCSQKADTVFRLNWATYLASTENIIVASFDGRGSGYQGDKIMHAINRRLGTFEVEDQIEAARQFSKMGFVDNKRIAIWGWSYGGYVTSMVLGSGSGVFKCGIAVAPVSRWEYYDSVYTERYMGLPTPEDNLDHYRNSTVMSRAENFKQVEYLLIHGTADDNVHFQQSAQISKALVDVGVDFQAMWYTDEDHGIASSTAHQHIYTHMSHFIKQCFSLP

Take `COc1ccc(N2CC[C@@H](N)[C@@H](C(=O)N3CCSC3)C2)cc1OC` (racemic) [Example 40, 3 [(3S,4R) and (3R,4S)-4-Amino-1-(3,4-dimethoxy-phenyl)-piperidine-3-yl]-thiazolidin-3-yl-methanone]: the IC50 is 0.82 µM.

For the compound `NC1CCN(CCc2ccccc2)CC1c1cccc(Cl)c1` (stereo not drawn) [Example 23, 3-(3-Chloro-phenyl)-1-phenethyl-piperidine-4-ylamine], the 50% inhibitory concentration (IC50) is 0.16 µM.

On to `N[C@@H]1CCN(CCc2ccccn2)C[C@@H]1C(=O)N1CCSC1` [Example 36], for which the IC50 came to 0.29 µM.

In general, IC50 refers to the concentration that inhibits the measured activity by half.
